Like-named read-outs stand apart in the source and are kept apart here.
Assays:
A2780 and A2780cis cells [1] = experiment: Mitochondrial potential loss measurement (MitoTracker Red, flow cytometry); assay type: cell-based, human; settings: 2 h and 4 h incubation
Procedure: The loss of mitochondrial transmembrane potential (ΔΨm) occurs early during apoptosis and is often considered as a marker of apoptosis activated by the mitochondrial pathway. MitoTracker Red (Invitrogen, Waltham, MA, USA) dye was used as a probe for ΔΨm, which accumulates in the active mitochondria of living cells: 50 nM, 20 min incubation, at RT. The reduction of Δ Ψm was detected by flow cytometry as a decrease in red fluorescence of the dye in treated cells as compared to untreated cells.

A2780cis cells [2] = experiment: MTT cellular viability assay, A2780cis; assay type: cell-based, human; settings: for RF (IC50 A2780cis/IC50 A2780): Resistance factor defined as IC50(resistant)/IC50(sensitive); for IC50: A2780cis, MTT, 72 h
Procedure: (§1) Cell lines A2780 (human ovarian carcinoma, ECACC cat. No. 93112519), A2780cis (subline resistant to cisplatin, ECACC cat. […] All cell lines were maintained in a humidified incubator, at 37 °C and 5% CO2. The cell lines A2780 and A2780cis were grown as monolayers, and cultures were detached with trypsin and renewed every 3–4 days. Toledo and Toledo-cis were grown in suspension; the cultures were renewed every 3–4 days. The Toledo cell line was kindly provided by Prof. […] The cancer cells were seeded in 24-well plates, with 1 mL of cell suspension per well, in the following densities: A2780—10^4 cells/mL; […] Lymphocytes were seeded in 48-well plates, 0.5 mL of cell suspension per well, at −2 × 10^5 cells/mL. The cultures were left overnight to adapt. The next day, the tested compounds were added, pre-dissolved in DMF, and then in a complete culture medium, at concentrations two-fold higher than the final ones. The resulting solutions were added to cell cultures to obtain the demanded concentration. Stock solutions of the compounds were freshly made before every experiment. The final concentration of the solvents in culture medium was 0.2% v/v. […] Then the culture medium was removed, and the purple formazan crystals were dissolved in DMSO. The absorbance was measured at 540 nm on a Spectrostar Nano spectrophotometer with a microplate reader (BMG Labtech, Ortenberg, Germany). The experiments were performed at least in triplicate. The results were transformed to relative values, as the percentage of the solvent control (assumed as 100%) to subtract any toxic effect of DMF.

A2780 cells [3] = system: A2780 cells; parameters: method as in doi:10.1016/j.ica.2016.11.021; settings: cited from earlier work
A2780 and A2780cis cells [4] = experiment: Annexin V apoptosis assay (flow cytometry); assay type: cell-based, human; settings: 2 h and 4 h incubation, compared to untreated cells
Procedure: The apoptotic cells were identified by flow cytometry using the Annexin-V/FITC (BDBiosciences, San Diego, CA, USA) assay according to the manufacturer’s instructions. […] PI only stains the nuclei of damaged cells with permeable plasma membranes. Briefly, the cells were incubated with tested compounds for 2 and 4 h. After incubation, the cells were washed twice with cold PBS and then resuspended in 100 μL of binding buffer, containing 2 μL of FITC conjugated annexin-V and 10 μg mL^−1 of PI (Becton-Dickinson, San Jose, CA, USA). Then, the preparations were incubated at room temperature, protected from light, for 15 min. Fluorescence was measured immediately after staining by flow cytometry using FL1 (green, annexin-V) and FL3 (red, PI) standard fluorescent filters.

Toledo-cis cells [5] = system: Toledo-cis cells; parameters: method as in doi:10.1016/j.ica.2016.11.021; settings: MTT, 72 h, reposted from previous paper; cited from earlier work
Toledo-cis cells [6] = experiment: MTT cellular viability assay, Toledo-cis; assay type: cell-based, human; settings: for RF (IC50 Toledo-cis/IC50 Toledo): Resistance factor defined as IC50(resistant)/IC50(sensitive); for IC50: Toledo-cis, MTT, 72 h
Procedure: as §1

human lymphocytes [7] = system: human lymphocytes; parameters: method as in doi:10.1016/j.ica.2016.11.021; settings: MTT, 72 h, reposted from previous paper; cited from earlier work
A2780cis cells [8] = system: A2780cis cells; parameters: method as in doi:10.1016/j.ica.2016.11.021; settings: MTT, 72 h, reposted from previous paper; cited from earlier work
Toledo cells [9] = system: Toledo cells; parameters: method as in doi:10.1016/j.ica.2016.11.021; settings: cited from earlier work
Toledo cells [10] = experiment: MTT cellular viability assay, Toledo; assay type: cell-based, human; settings: 72 h
Procedure: (§2) Cell lines A2780 (human ovarian carcinoma, ECACC cat. No. 93112519), A2780cis (subline resistant to cisplatin, ECACC cat. No. 93112517), Toledo (human diffuse large cell lymphoma, ATCC CRL-2631TM), and Toledo-cis (cisplatin-resistant subline obtained from Toledo in our laboratory) were cultured in RPMI-1640 medium (Biological Industries, Kibbutz Beit-Haemek, Israel) supplemented with 10% heat-inactivated fetal bovine serum, 5 mM Hepes, and 50 µg/mL gentamycin. All cell lines were maintained in a humidified incubator, at 37 °C and 5% CO2. The cell lines A2780 and A2780cis were grown as monolayers, and cultures were detached with trypsin and renewed every 3–4 days. Toledo and Toledo-cis were grown in suspension; the cultures were renewed every 3–4 days. The Toledo cell line was kindly provided by Prof. Piotr Smolewski from the Department of Experimental Hematology, Medical University of Lodz, ul Ciołkowskiego 2, 93–510 Łódź, Poland, on the conditions of collaboration. […]
(§3) The cancer cells were seeded in 24-well plates, with 1 mL of cell suspension per well, in the following densities: A2780—10^4 cells/mL; A2780cis—1.5 × 10^4 cells/mL; and Toledo and Toledo-cis—5 × 10^4 cells/mL. […] The absorbance was measured at 540 nm on a Spectrostar Nano spectrophotometer with a microplate reader (BMG Labtech, Ortenberg, Germany). […]

human lymphocytes [11] = experiment: MTT cellular viability assay, normal lymphocytes; assay type: cell-based; settings: for IC50: Lymphocytes, MTT, 72 h; for times less toxic for normal lymphocytes in comparison to cisplatin: relative to cisplatin
Procedure: The buffy coat fraction of peripheral blood from healthy donors was purchased from the Regional Blood Bank in Lodz, Poland. Mononuclear blood cells were isolated using Lympho-Sep tubes (Biological Industries, Israel). Lymphocytes were cultured in RPMI-1640 medium (Biological Industries, Israel) supplemented with 10% heat-inactivated fetal bovine serum, phytohemaglutinin M solution (PHA-M, Biological Industries), 5 mM Hepes, and 50 µg/mL gentamycin. The cancer cells were seeded in 24-well plates, with 1 mL of cell suspension per well, in the following densities: A2780—10^4 cells/mL; […] Lymphocytes were seeded in 48-well plates, 0.5 mL of cell suspension per well, at −2 × 10^5 cells/mL. The cultures were left overnight to adapt. The next day, the tested compounds were added, pre-dissolved in DMF, and then in a complete culture medium, at concentrations two-fold higher than the final ones. The resulting solutions were added to cell cultures to obtain the demanded concentration. Stock solutions of the compounds were freshly made before every experiment. The final concentration of the solvents in culture medium was 0.2% v/v. […] Then the culture medium was removed, and the purple formazan crystals were dissolved in DMSO. The absorbance was measured at 540 nm on a Spectrostar Nano spectrophotometer with a microplate reader (BMG Labtech, Ortenberg, Germany). The experiments were performed at least in triplicate. The results were transformed to relative values, as the percentage of the solvent control (assumed as 100%) to subtract any toxic effect of DMF.

A2780 cells [12] = experiment: MTT cellular viability assay, A2780; assay type: cell-based, human; settings: 72 h
Procedure: as §2, §3

[13] = system: panel of cancer cells and human lymphocytes; experiment: MTT cellular viability assay, all tested cell lines; assay type: cell-based; settings: range over all tested cell lines, 72 h, read-out: IC50 values towards all tested cell lines
Procedure: as §2, §3

human topoisomerase I = biological target: T1, human topoisomerase I (Homo sapiens, UniProt P11387); experiment: Topoisomerase I drug screening (plasmid based), gel electrophoresis; assay type: biochemical; settings: scDNA + topo1; tested compounds 10-20 µM, camptothecin 100 µM
T1 construct: purchased TopoGen, Buena Vista, CO, USA
T1 sequence (P11387 1-765): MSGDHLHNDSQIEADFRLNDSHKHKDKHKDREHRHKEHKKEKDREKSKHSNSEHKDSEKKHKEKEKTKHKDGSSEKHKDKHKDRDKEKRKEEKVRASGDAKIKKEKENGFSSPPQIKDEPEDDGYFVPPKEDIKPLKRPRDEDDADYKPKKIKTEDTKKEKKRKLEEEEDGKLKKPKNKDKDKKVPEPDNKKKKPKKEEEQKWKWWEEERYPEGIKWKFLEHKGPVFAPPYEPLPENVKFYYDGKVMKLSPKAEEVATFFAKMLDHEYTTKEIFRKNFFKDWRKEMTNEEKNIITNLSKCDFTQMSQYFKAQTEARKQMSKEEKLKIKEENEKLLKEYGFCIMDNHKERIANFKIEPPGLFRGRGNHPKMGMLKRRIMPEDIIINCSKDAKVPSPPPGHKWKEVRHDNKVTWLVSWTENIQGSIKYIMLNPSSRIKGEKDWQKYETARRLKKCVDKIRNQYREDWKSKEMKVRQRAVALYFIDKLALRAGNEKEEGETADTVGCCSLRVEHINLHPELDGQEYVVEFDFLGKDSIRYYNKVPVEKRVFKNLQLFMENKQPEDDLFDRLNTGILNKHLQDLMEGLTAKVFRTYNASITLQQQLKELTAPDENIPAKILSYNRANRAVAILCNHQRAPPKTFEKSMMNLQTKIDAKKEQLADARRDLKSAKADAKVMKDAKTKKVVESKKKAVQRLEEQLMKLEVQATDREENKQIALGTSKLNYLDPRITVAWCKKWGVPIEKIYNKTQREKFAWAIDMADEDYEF
Procedure: The test procedure was carried out according to the manufacturer′s instructions (Topoisomerase I Drug Screening Kit(plasmid based) TopoGen/Topoisomerase II Drug Screening Kit (plasmid based) (TopoGen, Buena Vista, CO, USA). A reaction mixture with appropriate concentrations of water and buffer and 1–0.5 mL of DNA (plasmid) was prepared. Then, the tested compounds dissolved in DMSO were added. A solvent control test was also performed. Finally, an enzyme in the indicated amount was added to the mixture. The whole was incubated at 37 °C for 30 min. Then, the reaction was stopped by adding 2 μL of detergent-SDS (sodium dodecyl sulfate). Proteinase K solution (50 μg/mL) was then added and incubated at 37 °C for 15 min. After that time, a loading buffer (bromophenol blue and glycerol) was added to the samples and then applied to a 1% agarose gel. Electrophoresis was carried out in TAE (Tris Acetate-EDTA) buffer, which was obtained by mixing 40 mM Tris Acetate, 1 mM EDTA, and diluting with water. It was carried out for 4–5 h at 2 V/cm. For the Topo I assay, two types of gel were prepared: non-EB (Figure 8A) and EB gel (Figure 8B). Non-EB gels were stained with EB (0.5 ug/mL) for 15–30 min and then destained in water or buffer for 15 min prior to photodocumentation. […]

[14] = A2780, MTT, 72 h, reposted from previous paper
[15] = MTT, 72 h, reposted from previous paper

SMILES | loss of mitochondrial membrane potential (A2780 and A2780cis cells [1]) | RF (IC50 A2780cis/IC50 A2780) (A2780cis cells [2]) | IC50 (A2780 cells [3]; [14]) [µM] | percentage of Ann-V positive cells (A2780 and A2780cis cells [4]) | IC50 (Toledo-cis cells [5]) [µM] | RF (IC50 Toledo-cis/IC50 Toledo) (Toledo-cis cells [6]) | IC50 (human lymphocytes [7]) [µM] | IC50 (A2780cis cells [8]) [µM] | IC50 (Toledo cells [9]; [15]) [µM] | times less toxic for normal lymphocytes in comparison to cisplatin (human lymphocytes [11]) [times] | also measured
N.N.[Cl][Pt][Cl] [Cisplatin (1), cis-diamminedichloroplatinum (II), reference compound] | much lower influence | 84 | 0.2 ± 0.1 | did not cause similar changes | 8.3 ± 0.6 | 17 | 0.2 ± 0.1 | 16.8 ± 1.5 | 0.5 ± 0.07 | – | IC50 (A2780 cells [3]; A2780, text value): < 1 µM; RF (IC50 Toledo-cis/IC50 Toledo) (Toledo-cis cells [6]; listed as cisplatin): about 17; IC50 (Toledo cells [9]): < 1 µM
Nc1c(-c2ccccc2)oc2ccccc2c1=O [Ligand, 3-aminoflavone, reference compound] | – | – | – | – | – | – | – | – | – | – | IC50 (Toledo cells [10]; Homo sapiens): > 100 µM; IC50 (A2780cis cells [2]; Homo sapiens): > 100 µM; IC50 (Toledo-cis cells [6]; Homo sapiens): > 100 µM; IC50 (human lymphocytes [11]; Homo sapiens, Lymphocyte): > 100 µM; IC50 (A2780 cells [12]; Homo sapiens): > 100 µM
COC1(c2ccccc2)Oc2ccccc2C(=O)C1=N.COC1(c2ccccc2)Oc2ccccc2C(=O)C1=N.[Cl][Ru][Cl] (stereo not drawn) [134 (2), cis-dichlorobis(3-imino-2-methoxyflavanone)ruthenium(II)] | – | 1.8 | 2.5 ± 0.2 | – | 2.9 ± 0.2 | 5.8 | 3.4 ± 0.3 | 4.6 ± 0.2 | 0.5 ± 0.1 | 3 | –
CCOC1(c2ccccc2)Oc2ccccc2C(=O)C1=N.CCOC1(c2ccccc2)Oc2ccccc2C(=O)C1=N.[Cl][Ru][Cl] (stereo not drawn) [138 (3), cis-dichlorobis(3-imino-2-ethoxyflavanone)ruthenium(II)] | – | 0.8 | 1.8 ± 0.1 | – | 2.8 ± 0.1 | 4.6 | 1.6 ± 0.1 | 1.5 ± 0.4 | 0.6 ± 0.04 | 7 | –
Nc1c(-c2ccccc2)oc2ccccc2c1=O.Nc1c(-c2ccccc2)oc2ccccc2c1=O.[Cl][Pt][Cl] [TCAP(4), trans-dichlorobis(3-aminoflavone)platinum(II)] | much lower influence | 2.3 | – | did not cause similar changes | – | 1.4 | – | – | – | 60 | IC50 (Toledo cells [10]): 8.8 ± 0.8 µM; IC50 [13]: 6.5 to 15.1 µM; IC50 (A2780cis cells [2]): 15.1 ± 0.6 µM; IC50 (Toledo-cis cells [6]): 12.6 ± 1.2 µM; IC50 (human lymphocytes [11]): 11.9 ± 0.7 µM; IC50 (A2780 cells [12]): 6.5 ± 0.3 µM
CC[C@@]1(O)C(=O)OCc2c1cc1n(c2=O)Cc2cc3ccccc3nc2-1 [camptothecin] | – | – | – | – | – | – | – | – | – | – | inhibition of topoisomerase I / DNA band pattern (human topoisomerase I): presence of open circular DNA
